Reference: ChEMBL document CHEMBL5390242, “Design, Synthesis, and Antitumor Efficacy of Substituted 2-Amino[1,2,4]triazolopyrimidines and Related Heterocycles as Dual Inhibitors for Microtubule Polymerization and Janus Kinase 2” (J Med Chem, 2023)
Calls of active or inactive are those of the source. The rule behind the calls is not given here.

Assays:
[1] = tested on: HeLa; experiment: Antiproliferative activity against human HeLa cells assessed as cell growth inhibition incubated for 48 hrs by MTT assay; format: functional, cell-based
[2] = tested on: A549; experiment: Antiproliferative activity against human A549 cells assessed as cell growth inhibition incubated for 48 hrs by MTT assay; format: functional, cell-based; settings: A549, 48 h
[3] = tested on: BXPC-3; experiment: Antiproliferative activity against human BXPC-3 cells assessed as cell growth inhibition incubated for 48 hrs by MTT assay; format: functional, cell-based; settings: BXPC-3, 48 h
[4] = tested on: KP-4; experiment: Antiproliferative activity against human KP-4 cells assessed as cell growth inhibition incubated for 48 hrs by MTT assay; format: functional, cell-based; settings: KP-4, 48 h
[5] = tested on: MCF7; experiment: cells; settings: Homo sapiens, MCF7, 48 h
Description: Antiproliferative activity against human MCF7 cells assessed as cell growth inhibition incubated for 48 hrs by MTT assay

[6] = target: T1, Tyrosine-protein kinase JAK2 (Homo sapiens, UniProt O60674); experiment: Inhibition of JAK2 (unknown origin) using Poly-(Glu,Tyr 4:1) peptide as substrate at 1 uM in presence of ATP by ADP-Glo reagent based assay relative to control
[7] = target: T1, Tyrosine-protein kinase JAK2; experiment: Inhibition of JAK2 (unknown origin) using Poly-(Glu,Tyr 4:1) peptide as substrate in presence of ATP by ADP-Glo reagent based assay
[8] = target: Tubulin (Sus scrofa, UniProt P02554+P02550); experiment: Inhibition of porcine brain tubulin polymerization measured for 30 mins in presence of GTP by microplate reader assay; format: tissue-based
[9] = tested on: A2780/Taxol; experiment: Antiproliferative activity against human A2780T cells assessed as cell growth inhibition incubated for 48 hrs by MTT assay; format: functional, cell-based
[10] = Resistance index, ratio of IC50 for antiproliferative activity against human HCT-8/VCR cells to IC50 for antiproliferative activity against human HCT-8 cells; format: functional
[11] = Antiproliferative activity against human HCT-8/VCR cells assessed as cell growth inhibition incubated for 48 hrs by MTT assay; format: functional, cell-based
[12] = tested on: HCT-8; experiment: Antiproliferative activity against human HCT-8 cells assessed as cell growth inhibition incubated for 48 hrs by MTT assay; format: functional, cell-based; settings: HCT-8, 48 h
[13] = target: Tubulin beta (Homo sapiens) (UniProt P68371+Q9H4B7+Q13509+P04350+Q3ZCM7+P07437+Q13885+Q9BVA1+Q9BUF5+A6NNZ2); experiment: Binding affinity to beta-tubulin colchicine binding site in human A549 cells assessed as inhibition of EBI-beta-tubulin adduct band formation at 5 to 25 uM preincubated for 2 hrs followed by EBI addition measured after 1.5 hrs by EBI competition based Western blotting analysis; format: cell-based; settings: dose 5-25 µM

T1 sequence (O60674 whole entry): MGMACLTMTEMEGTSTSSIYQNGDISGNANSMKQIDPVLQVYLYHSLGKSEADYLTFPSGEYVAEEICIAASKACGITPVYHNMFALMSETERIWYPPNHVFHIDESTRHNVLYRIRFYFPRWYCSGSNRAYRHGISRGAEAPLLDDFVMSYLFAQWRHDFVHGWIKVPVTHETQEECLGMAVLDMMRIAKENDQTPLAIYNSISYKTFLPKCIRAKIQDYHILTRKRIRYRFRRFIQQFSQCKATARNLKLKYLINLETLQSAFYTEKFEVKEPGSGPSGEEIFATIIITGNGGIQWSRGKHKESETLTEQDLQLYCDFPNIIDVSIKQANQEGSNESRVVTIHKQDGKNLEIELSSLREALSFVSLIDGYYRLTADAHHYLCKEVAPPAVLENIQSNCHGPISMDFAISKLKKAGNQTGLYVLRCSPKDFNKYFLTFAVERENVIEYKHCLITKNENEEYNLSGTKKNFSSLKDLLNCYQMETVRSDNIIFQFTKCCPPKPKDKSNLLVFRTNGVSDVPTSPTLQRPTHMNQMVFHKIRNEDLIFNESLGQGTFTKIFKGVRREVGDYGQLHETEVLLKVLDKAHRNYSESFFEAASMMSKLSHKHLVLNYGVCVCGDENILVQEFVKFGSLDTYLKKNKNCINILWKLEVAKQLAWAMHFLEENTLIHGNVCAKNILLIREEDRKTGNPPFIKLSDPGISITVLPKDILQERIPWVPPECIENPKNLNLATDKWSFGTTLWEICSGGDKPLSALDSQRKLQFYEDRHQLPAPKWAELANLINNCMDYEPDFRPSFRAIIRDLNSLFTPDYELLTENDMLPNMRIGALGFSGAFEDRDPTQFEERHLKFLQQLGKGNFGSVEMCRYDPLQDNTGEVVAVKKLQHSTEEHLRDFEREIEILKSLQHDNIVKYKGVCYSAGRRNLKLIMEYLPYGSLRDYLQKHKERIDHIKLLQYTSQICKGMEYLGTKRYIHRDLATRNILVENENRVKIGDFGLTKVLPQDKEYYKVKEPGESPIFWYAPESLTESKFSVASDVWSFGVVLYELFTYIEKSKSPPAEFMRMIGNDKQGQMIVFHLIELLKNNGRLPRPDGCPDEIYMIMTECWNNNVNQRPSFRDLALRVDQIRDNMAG

Row | Compound | IC50 [1] | IC50 [2] | IC50 [3] | IC50 [5] | inhibition [6] | IC50 [7] | IC50 [8] | IC50 [9] | IC50 [12] | Activity [13] | IC50 [4] | Ratio IC50 [10] | IC50 [11]
1 | COc1cc(-c2ccnc3nc(Nc4cccc5c4ccn5C)nn23)cc(OC)c1OC | 80 nM | 13 nM | 18 nM | 26 nM |  |  |  |  |  |  | 36 nM |  | 
2 | COc1ccc(-c2ccc3nnc(Nc4cc(OC)c(OC)c(OC)c4)n3c2)cc1O | 11300 nM | 3940 nM | 5960 nM | 3500 nM |  |  |  |  |  |  | 4670 nM |  | 
3 | COc1cc(-c2cccc3nc(Nc4cccc5[nH]ccc45)nn23)cc(OC)c1OC | 247 nM | 64 nM | 29 nM | 72 nM |  |  |  |  |  |  | 259 nM |  | 
4 | COCOc1cc(Nc2nc3ccnc(-c4cc(OC)c(OC)c(OC)c4)n3n2)ccc1OC | > 10000 nM | > 10000 nM | 3960 nM | 1500 nM |  |  |  |  |  |  | > 10000 nM |  | 
5 | COc1cc(-c2nccc3nc(Nc4ccc5c6ccccc6n(C)c5c4)nn23)cc(OC)c1OC | > 10000 nM | > 10000 nM | > 10000 nM | > 10000 nM |  |  |  |  |  |  | > 10000 nM |  | 
6 | COc1cc(-c2nccc3nc(Nc4cccc5ccn(C)c45)nn23)cc(OC)c1OC | > 10000 nM | > 10000 nM | > 10000 nM | > 10000 nM |  |  |  |  |  |  | > 10000 nM |  | 
7 | COc1cc(-c2ccnc3nc(Nc4cccc5[nH]ccc45)nn23)cc(OC)c1OC | 166 nM | 85 nM | 23 nM | 35 nM |  |  |  |  |  |  | 70 nM |  | 
8 | CC(=O)O[C@H]1C(=O)[C@@]2(C)[C@H]([C@H](OC(=O)c3ccccc3)[C@]3(O)C[C@H](OC(=O)[C@H](O)[C@@H](NC(=O)c4ccccc4)c4ccccc4)C(C)=C1C3(C)C)[C@]1(OC(C)=O)CO[C@@H]1C[C@@H]2O [PACLITAXEL] | 7 nM |  | 11 nM | 7 nM |  |  |  | 319 nM |  |  | 7 nM |  | 
9 | COc1cc(-c2nccc3nc(Nc4cccc5[nH]c6ccccc6c45)nn23)cc(OC)c1OC | > 10000 nM | > 10000 nM | > 10000 nM | > 10000 nM |  |  |  |  |  |  | > 10000 nM |  | 
10 | COc1cc(-c2nccc3nc(Nc4ccc5c(c4)c4ccccc4n5C)nn23)cc(OC)c1OC | > 10000 nM | 996 nM | > 10000 nM | > 10000 nM |  |  |  |  |  |  | 2120 nM |  | 
11 | COc1cc(-c2cncc3nc(Nc4cccc5c4ccn5C)nn23)cc(OC)c1OC | 59 nM | 7150 nM | 38 nM | 25 nM |  |  |  |  |  |  | 106 nM |  | 
12 | COc1cc(-c2nccc3nc(Nc4cccc5c4ccn5C)nn23)cc(OC)c1OC | 29 nM | 13 nM | 16 nM | 46 nM | 56% | 705 nM | 1600 nM |  |  |  | 40 nM |  | 
13 | CC[C@]1(O)C[C@H]2CN(CCc3c([nH]c4ccccc34)[C@@](C(=O)OC)(c3cc4c(cc3OC)N(C=O)[C@H]3[C@@](O)(C(=O)OC)[C@H](OC(C)=O)[C@]5(CC)C=CCN6CC[C@]43[C@@H]65)C2)C1 [VINCRISTINE] |  |  |  |  |  |  |  |  | 173 nM | inactive |  | 16.9 | 2920 nM
14 | COc1cc(-c2cncc3nc(Nc4cccc5[nH]ccc45)nn23)cc(OC)c1OC | 41 nM | 2530 nM | 88 nM | 26 nM |  |  |  |  |  |  | 431 nM |  | 

The next lines start with results.

Row | IC50 [1] | IC50 [2] | IC50 [3] | IC50 [5] | inhibition [6] | IC50 [7] | IC50 [8] | IC50 [9] | IC50 [12] | Activity [13] | Compound | IC50 [4] | Ratio IC50 [10] | IC50 [11]
15 | 982 nM | 1860 nM | 692 nM | 267 nM |  |  |  |  |  |  | COc1cc(Nc2nc3ccnc(-c4cccc5[nH]ccc45)n3n2)cc(OC)c1OC | 714 nM |  | 
16 | 1060 nM | 502 nM | 205 nM | 363 nM | 46% |  |  |  |  |  | COc1ccc(Nc2nc3ccnc(-c4cc(OC)c(OC)c(OC)c4)n3n2)cc1O | 3150 nM |  | 
17 | 202 nM | 92 nM | 40 nM | 64 nM | 77% | 544 nM | 15300 nM |  |  |  | COc1cc(-c2nccc3nc(Nc4ccc5c(ccn5C)c4)nn23)cc(OC)c1OC | 938 nM |  | 
18 | > 10000 nM | > 10000 nM | > 10000 nM | > 10000 nM |  |  |  |  |  |  | COc1cc(-c2nccc3nc(Nc4ccc5c(c4)[nH]c4ccccc45)nn23)cc(OC)c1OC | > 10000 nM |  | 
19 | 209 nM | 85 nM | 107 nM | 256 nM | 29% |  |  |  |  |  | COc1cc(-c2nccc3nc(Nc4ccc5cc[nH]c5c4)nn23)cc(OC)c1OC | 610 nM |  | 
20 | 312 nM | 354 nM | 355 nM | 326 nM | 46% |  |  |  |  |  | COc1cc(-c2nccc3nc(Nc4ccc(C)c(O)c4)nn23)cc(OC)c1OC | 2180 nM |  | 
21 | 2580 nM | 257 nM | 2410 nM | 325 nM | 1.7% |  |  |  |  |  | COc1cc(-c2nccc3nc(Nc4cccc5cc[nH]c45)nn23)cc(OC)c1OC | 1200 nM |  | 
22 | 131 nM | 81 nM | 20 nM | 36 nM | 96% | 90 nM | 8800 nM |  |  |  | COc1cc(-c2nccc3nc(Nc4ccc5[nH]ccc5c4)nn23)cc(OC)c1OC | 352 nM |  | 
23 | 117 nM | 201 nM | 176 nM | 189 nM | 86% | 326 nM | 4200 nM |  |  |  | COc1ccc(Nc2nc3ccnc(-c4cc(OC)c(OC)c(OC)c4)n3n2)cc1N | 1800 nM |  | 
24 | 593 nM | 2400 nM | 1420 nM | 951 nM |  |  |  |  |  |  | COc1ccc(Nc2nc3ccnc(-c4cc(OC)c(OC)c(OC)c4)n3n2)cc1[N+](=O)[O-] | 5460 nM |  | 
25 | > 10000 nM | > 10000 nM | > 10000 nM | > 10000 nM |  |  |  |  |  |  | COCOc1cc(Nc2nc3ccnc(-c4cc(OC)c(OC)c(OC)c4)n3n2)ccc1C | > 10000 nM |  | 
26 | 2170 nM | > 10000 nM | 630 nM | 280 nM | 26% |  |  |  |  |  | COc1cc(-c2nccc3nc(Nc4ccc5ccn(C)c5c4)nn23)cc(OC)c1OC | 7160 nM |  | 
